Where a name gives a salt, the structure may show the parent alone.
What follows are compounds tested against MCH receptor (Homo sapiens, UniProt Q99705) (assay: FLIPR/FDSS6000 functional assay: intracellular Ca2+ changes evoked by MCH). Settings: antagonist activity, 50 nM of MCH, [Ca2+]i by FLIPR or FDSS; read-out: IC50.
Format: cell-based
Method in brief: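 Cells expressing a constitutively active, non-endogenous MCH receptor were loaded with 4 μM Fluo-4-AM for 1 hr at 37 °C. They were then preincubated 30 min with compound before MCH addition, using 50 nM MCH for antagonist testing. [Ca2+]i transients were monitored at Ex 488/Em 530 nm for 290 s by FLIPR or FDSS.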

Row | IC50 | Compound
1 | 26 nM | Cc1nc(N[C@H]2CC[C@@H](NC(=O)c3cccc(Cl)c3)CC2)cc(N(C)C)n1 [Example 24, 3-Chloro-N-(cis-4-{[6-(dimethylamino)-2-methylpyrimidin-4-yl]amino}cyclohexyl)-benzamide hydrochloride]

Same assay, conditions: class by percent of control at 10^−7 M or by IC50; antagonist activity, 50 nM of MCH; read-out: class

Row | Compound | IC50
2 | Cc1nc(N[C@H]2CC[C@@H](NC(=O)c3ccc(F)c(Cl)c3)CC2)cc(N(C)C)n1 [Example 6, 3-Chloro-N-(cis-4-{[6-(dimethylamino)-2-methylpyrimidin-4-yl]amino}cyclohexyl)-4-fluorobenzamide hydrochloride] | < 50 nM
3 | Cc1nc(N[C@H]2CC[C@@H](NC(=O)Oc3ccc(Br)cc3)CC2)cc(N(C)C)n1 [Example 184, 4-Bromophenyl (cis-4-{[6-(dimethylamino)-2-methylpyrimidin-4-yl]amino}cyclohexyl)carbamate] | > 200 nM
4 | Cc1nc(N[C@H]2CC[C@@H](NC(=O)c3cc(F)cc(C(F)(F)F)c3)CC2)cc(N(C)C)n1 [Example 26, N-(cis-4-{[6-(Dimethylamino)-2-methylpyrimidin-4-yl]amino}cyclohexyl)-3-fluoro-5-(trifluoromethyl)benzamide hydrochloride] | 50 to 200 nM
5 | Cc1nc(N[C@H]2CC[C@@H](NC(=O)c3ccc(F)c(Cl)c3)CC2)cc(N2CCN(C)CC2)n1 [Example 41, 3-Chloro-4-fluoro-N-(cis-4-{[2-methyl-6-(4-methylpiperazin-1-yl)pyrimidin-4-yl]amino}-cyclohexyl)benzamide dihydrochloride] | > 200 nM
6 | Cc1nc(N[C@H]2CC[C@@H](NC(=O)c3ccc(F)c(Cl)c3)CC2)cc(N2CCCC2)n1 [Example 40, 3-Chloro-4-fluoro-N-{cis-4-[(2-methyl-6-pyrrolidin-1-ylpyrimidin-4-yl)amino]cyclohexyl}-benzamide hydrochloride] | < 50 nM
7 | CCN(C)c1nccc(N[C@H]2CC[C@@H](NC(=O)c3ccc(F)c(F)c3)CC2)n1 [Example 35, N-[cis-4-({2-[Ethyl(methyl)amino]pyrimidine-4-yl}amino)cyclohexyl]-3,4-difluorobenzamide hydrochloride] | > 200 nM
8 | N^4-(cis-4-{[Bromo-2-(trifluoromethoxy)benzyl]amino}cyclohexyl)-N^2,N^2-dimethylpyrimidine-2,4-diamine dihydrochloride [Example 42] | > 200 nM
9 | Cc1nc(N[C@H]2CC[C@@H](NC(=O)c3cncc(Br)c3)CC2)cc(N(C)C)n1 [Example 12, 5-Bromo-N-(cis-4-{[6-(dimethylamino)-2-methylpyrimidin-4-yl]amino}cyclohexyl)-nicotinamide dihydrochloride] | 50 to 200 nM
10 | Cc1nc(N[C@H]2CC[C@@H](NC(=O)c3ccc(Cl)cc3)CC2)cc(N(C)C)n1 [Example 25, 4-Chloro-N-(cis-4-{[6-(dimethylamino)-2-methylpyrimidin-4-yl]amino}cyclohexyl)-benzamide hydrochloride] | 50 to 200 nM
11 | CNc1cc(N[C@H]2CC[C@@H](NC(=O)c3ccc(F)c(F)c3)CC2)nc(C)n1 [Example 30, 3,4-Difluoro-N-(cis-4-{[2-methyl-6-(methylamino)pyrimidin-4-yl]amino}cyclohexyl)-benzamide hydrochloride] | > 200 nM
12 | CN(CCO)c1nccc(N[C@H]2CC[C@@H](NC(=O)c3ccc(F)c(F)c3)CC2)n1 [Example 36, 3,4-Difluoro-N-[cis-4-({2-[(2-hydroxyethyl)(methyl)amino]pyrimidin-4-yl}amino)-cyclohexyl]benzamide hydrochloride] | > 200 nM
13 | Cc1nc(N[C@H]2CC[C@@H](NC(=O)c3ccc(OC(F)(F)F)cc3)CC2)cc(N(C)C)n1 [Example 20, N-(cis-4-{[6-(Dimethylamino)-2-methylpyrimidin-4-yl]amino}cyclohexyl)-4-(trifluoromethoxy)benzamide hydrochloride] | > 200 nM
14 | Cc1nc(N[C@H]2CC[C@@H](CNC(=O)c3ccc(F)c(F)c3)CC2)cc(N(C)C)n1 [Example 29, N-[(cis-4-{[6-(Dimethylamino)-2-methylpyrimidin-4-yl]amino}cyclohexyl)methyl]-3,4-difluorobenzamide hydrochloride] | > 200 nM
15 | Cc1nc(N[C@H]2CC[C@@H](NC(=O)c3cc(F)cc(Cl)c3)CC2)cc(N(C)C)n1 [Example 10, 3-Chloro-N-(cis-4-{[6-(dimethylamino)-2-methylpyrimidin-4-yl]amino}cyclohexyl)-5-fluorobenzamide hydrochloride] | < 50 nM
16 | CCNc1nccc(N[C@H]2CC[C@@H](NC(=O)c3ccc(F)c(F)c3)CC2)n1 [Example 34, N-(cis-4-{[2-(Ethylamino)pyrimidin-4-yl]amino}cyclohexyl)-3,4-difluorobenzamide hydrochloride] | > 200 nM
17 | Cc1nc(N[C@H]2CC[C@@H](NC(=O)c3cccc(Cl)c3)CC2)cc(N(C)C)n1 [Example 24, 3-Chloro-N-(cis-4-{[6-(dimethylamino)-2-methylpyrimidin-4-yl]amino}cyclohexyl)-benzamide hydrochloride] | < 50 nM
18 | Cc1nc(N[C@H]2CC[C@@H](NC(=O)c3cc(Cl)cc(Cl)c3)CC2)cc(N(C)C)n1 [Example 21, 3,5-Dichloro-N-(cis-4-{[6-(dimethylamino)-2-methylpyrimidin-4-yl]amino}cyclohexyl)-benzamide hydrochloride] | < 50 nM
19 | Cc1nc(N[C@H]2CC[C@@H](NC(=O)c3cccc(OC(F)(F)F)c3)CC2)cc(N(C)C)n1 [Example 18, N-(cis-4-{[6-(Dimethylamino)-2-methylpyrimidin-4-yl]amino}cyclohexyl)-3-(trifluoromethoxy)benzamide hydrochloride] | < 50 nM

Now from value to compound:

Row | IC50 | Compound
20 | 50 to 200 nM | CNc1cc(N[C@H]2CC[C@@H](NC(=O)c3cc(F)c(F)c(F)c3)CC2)nc(C)n1 [Example 169, 3,4,5-Trifluoro-N-(cis-4-{[2-methyl-6-(methylamino)pyrimidin-4-yl]amino}cyclohexyl)-benzamide hydrochloride]
21 | > 200 nM | Cc1nc(N[C@H]2CC[C@@H](C(=O)Oc3ccc(F)c(Cl)c3)CC2)cc(N(C)C)n1 [Example 194, 3-Chloro-4-fluorophenyl cis-4-{[6-(dimethylamino)-2-methylpyrimidin-4-yl]amino}-cyclohexanecarboxylate hydrochloride]
22 | 50 to 200 nM | Cc1nc(N[C@H]2CC[C@@H](C(=O)Nc3ccc(F)c(F)c3)CC2)cc(N(C)C)n1 [Example 192, cis-N-(3,4-Difluorophenyl)-4-{[6-(dimethylamino)-2-methylpyrimidin-4-yl]amino}cyclohexanecarboxamide hydrochloride]
23 | > 200 nM | Cc1nc(N)cc(N[C@H]2CC[C@@H](NC(=O)c3cc(F)c(F)c(F)c3)CC2)n1 [Example 168, N-{cis-4-[(6-Amino-2-methylpyrimidin-4-yl)amino]cyclohexyl}-3,4,5-trifluorobenzamide hydrochloride]
24 | > 200 nM | CCN(C)c1cc(N[C@H]2CC[C@@H](NC(=O)c3cc(F)c(F)c(F)c3)CC2)nc(C)n1 [Example 176, N-[cis-4-({6-[Ethyl(methyl)amino]-2-methylpyrimidin-4-yl}amino)cyclohexyl]-3,4,5-trifluorobenzamide hydrochloride]
25 | < 50 nM | Cc1nc(N[C@H]2CC[C@@H](C(=O)Nc3ccc(F)c(Cl)c3)CC2)cc(N(C)C)n1 [Example 191, cis-N-(3-Chloro-4-fluorophenyl)-4-{[6-(dimethylamino)-2-methylpyrimidin-4-yl]amino}cyclohexanecarboxamide hydrochloride]
26 | < 50 nM | CCc1nc(N[C@H]2CC[C@@H](NC(=O)c3cc(F)c(F)c(F)c3)CC2)cc(N(C)C)n1 [Example 177, N-(cis-4-{[6-(Dimethylamino)-2-ethylpyrimidin-4-yl]amino}cyclohexyl)-3,4,5-trifluorobenzamide hydrochloride]
27 | < 50 nM | CN(C)c1cc(N[C@H]2CC[C@@H](NC(=O)c3ccc(F)c(Cl)c3)CC2)nc(Cc2ccccc2)n1 [Example 179, N-(cis-4-{[2-Benzyl-6-(dimethylamino)pyrimidin-4-yl]amino}cyclohexyl)-3-chloro-4-fluorobenzamide hydrochloride]
28 | > 200 nM | Cc1nc(N[C@H]2CC[C@@H](NS(=O)(=O)c3ccc(F)c(Cl)c3)CC2)cc(N(C)C)n1 [Example 182, 3-Chloro-N-(cis-4-{[6-(dimethylamino)-2-methylpyrimidin-4-yl]amino}cyclohexyl)-4-fluorobenzenesulfonamide hydrochloride]
29 | > 200 nM | Cc1nc(NC2CC2)cc(N[C@H]2CC[C@@H](NC(=O)c3cc(F)c(F)c(F)c3)CC2)n1 [Example 173, N-(cis-4-{[6-(Cyclopropylamino)-2-methylpyrimidin-4-yl]amino}cyclohexyl)-3,4,5-trifluorobenzamide hydrochloride]
30 | > 200 nM | Cc1nc(N[C@H]2CC[C@@H](NC(=O)c3cc(F)c(F)c(F)c3)CC2)cc(N(C)c2ccccc2)n1 [Example 174, 3,4,5-Trifluoro-N-[cis-4-({2-methyl-6-[methyl(phenyl)amino]pyrimidin-4-yl}amino)-cyclohexyl]benzamide hydrochloride]
31 | > 200 nM | CN(C)c1cc(N[C@H]2CC[C@@H](NC(=O)c3ccc(F)c(Cl)c3)CC2)nc(-c2ccccc2)n1 [Example 178, 3-Chloro-N-(cis-4-{[6-(dimethylamino)-2-phenylpyrimidin-4-yl]amino}cyclohexyl)-4-fluorobenzamide hydrochloride]
32 | > 200 nM | Cc1cnc(N(C)C)nc1N[C@H]1CC[C@@H](NC(=O)c2ccc(F)c(Cl)c2)CC1 [Example 46, 3-Chloro-N-(cis-4-{[2-(dimethylamino)-5-methylpyrimidin-4-yl]amino}cyclohexyl)-4-fluorobenzamide hydrochloride]
33 | 50 to 200 nM | Cn1ccc2c(N[C@H]3CC[C@@H](NC(=O)c4cc(F)c(F)c(F)c4)CC3)ncnc21 [Example 188, 3,4,5-Trifluoro-N-{cis-4-[(7-methyl-7H-pyrrolo[2,3-d]pyrimidin-4-yl)amino]cyclohexyl}benzamide hydrochloride]
